One experiment has as its target F Xa. To be noted: prior art, literature values; cited from earlier work.
A further experiment has as its target T1, factor Xa (Bos taurus, UniProt P00743).
T1 construct: purchased Diagnostic Reagents Ltd, Thame, GB
Kind of experiment: Determination of the inhibitory constants for factor Xa (chromogenic substrate Moc-D-Nle-Gly-Arg-pNA, Dixon method). To be noted: for Ki: bovine factor Xa, 25° C., pH 8.0, average of at least three determinations. It counts as biochemical, bovine. As to the method:
Determination of the inhibitory Effect
To determine the inhibitory effect, 200 μl of this buffer (0.05 M 0.154 M NaCl, 5% Ethanol, pH 8.0; contains the inhibitor), 25 μl of substrate (Moc-D-Nle-Gly-Arg-pNA in H2O; Pentapharm Ltd., Basle, Switzerland) and 50 μl of factor Xa (bovine, Diagnostic Reagents Ltd, thame, GB) were incubated at 25° C. After 3 min, the reaction was stopped By adding 25 μl of acetic acid (50%), and the absorption at 405 nm was determined using a Microplate Reader (MR 5000, Dynatech, Denkendorf, Germany). The Ki values were Founder by the Dixon method (boichem. J. 55, 170-171, 1953) by linear regression using a Computer program. The Ki values are the average of at least three determinations. The Thrombin inhibitions was determined in analogy to a method described earlier (Stürzebecher et al., J. Med. Chem. 40, 3091-3099, 1997).

Another experiment has as its target Thrombin (UniProt P00735). Kind of experiment: Determination of the inhibitory constants for thrombin (method of Stürzebecher et al. 1997). The format is biochemical. From the text: The Ki values are the average of at least three determinations.

Structures are written as SMILES. Counter-ions that a name gives are not always drawn.

As a reminder, the Ki is a measure of affinity in units of concentration, obtained from inhibition or displacement.

T1 sequence (P00743 234-492 limits assumed): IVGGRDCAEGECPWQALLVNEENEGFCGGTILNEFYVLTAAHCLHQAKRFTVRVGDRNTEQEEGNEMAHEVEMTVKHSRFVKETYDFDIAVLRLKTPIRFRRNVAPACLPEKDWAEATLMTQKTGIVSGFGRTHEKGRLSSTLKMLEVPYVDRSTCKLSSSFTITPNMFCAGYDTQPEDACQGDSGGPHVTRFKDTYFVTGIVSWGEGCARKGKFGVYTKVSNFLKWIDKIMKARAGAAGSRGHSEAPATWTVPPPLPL
T1 sequence (P00743 41-180 partner limits assumed): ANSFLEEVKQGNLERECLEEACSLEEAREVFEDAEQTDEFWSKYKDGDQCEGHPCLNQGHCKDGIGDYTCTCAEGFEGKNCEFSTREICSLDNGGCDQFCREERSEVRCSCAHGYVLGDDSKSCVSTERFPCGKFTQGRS

With `N=C(N)c1ccc(C=C2CCCCC(=Cc3ccc(C(=N)N)cc3)C2=O)cc1` [BABCH], on F Xa, the Ki was 13 nM.
As for `CC(C)(C)OC(=O)CC[C@H](NC(=O)[C@@H](CCc1ccncc1)NS(=O)(=O)Cc1ccc([N+](=O)[O-])cc1)C(=O)NCc1ccc(C(=N)N)cc1` [Compound 51], on factor Xa, the “selectivity ratio SR (SR = Ki thrombin/Ki factor Xa)” value (“selectivity ratio SR” below) was found to be 87 and affinity was put at a Ki of 16 nM. The inhibition constant Ki on Thrombin is 1400 nM.
`N=C(N)c1ccc(CNC(=O)CNC(=O)[C@@H](CCc2ccccc2)NS(=O)(=O)Cc2ccccn2)cc1` [Compound 8, 2-PMs-d-homoPhe-Gly-4Amba×2 TFA]: at factor Xa, the “selectivity ratio SR” value was 96 and affinity was put at a Ki of 51 nM. The same compound returned an inhibition constant Ki at Thrombin of 4900 nM.
For the compound `N=C(N)c1ccc(CNC(=O)CNC(=O)C(CCc2ccncc2)NS(=O)(=O)Cc2ccncc2)cc1` (racemic) [Compound 2, 4-PMs-D,L-homoAla(4-Pyr)-Gly-4Amba×3 Acetate], at factor Xa, the “selectivity ratio SR” value came to 246. Further, the inhibitory constant (Ki) at factor Xa is 13 nM; on Thrombin, 3200 nM.
Consider `N=C(N)c1ccc(CNC(=O)CNC(=O)[C@@H](Cc2ccccc2)NS(=O)(=O)Cc2ccccc2)cc1` [Compound 10], for which, on factor Xa, the “selectivity ratio SR” value is given as 2.6 and the Ki came to 26 nM. For the same compound, the inhibition constant Ki on Thrombin stood at 68 nM.
Take `N=C(N)c1ccc(CNC(=O)CNC(=O)[C@@H](CCc2ccccc2)NS(=O)(=O)Cc2cc[n+]([O-])cc2)cc1` [Compound 59]: the “selectivity ratio SR” value on factor Xa is recorded as 16. The values for the Ki on factor Xa and on Thrombin were 970 nM and 16000 nM, respectively.
As for `N=C(N)c1ccc(CNC(=O)CNC(=O)[C@@H](CCc2ccccc2)NS(=O)(=O)Cc2ccccc2)cc1` [Compound 11], the “selectivity ratio SR” value on factor Xa amounted to 7.2. Also, the results for the Ki at factor Xa and on Thrombin were 6.5 nM and 47 nM, respectively.
Consider `N=C(N)c1ccc(CNC(=O)[C@H](CCC(=O)O)NC(=O)[C@@H](CCc2ccncc2)NS(=O)(=O)Cc2ccc(N)cc2)cc1` [Compound 26], for which the “selectivity ratio SR” value at factor Xa is recorded as 14705. Moreover, the figures for the Ki at factor Xa and at Thrombin were 1.7 nM and 25000 nM, respectively.
With `N=C(N)c1ccc(CNC(=O)CNC(=O)[C@H](CCc2ccccc2)NS(=O)(=O)Cc2ccccc2)cc1` [Compound 12], on factor Xa, the “selectivity ratio SR” value came to 31 and the Ki was found to be 360 nM. The Ki at Thrombin came to 11000 nM.
For `N=C(N)c1ccc(CNC(=O)[C@H](CCC(=O)O)NC(=O)[C@@H](CCc2ccc(O)cc2)NS(=O)(=O)Cc2ccc(N)cc2)cc1` [Compound 30], in that order: 22940, 3.4 nM and 78000 nM.
Turning to `CCOC(=O)CC[C@H](NC(=O)[C@@H](CCc1ccc(O)cc1)NS(=O)(=O)Cc1ccccc1)C(=O)NCc1ccc(C(=N)N)cc1` [Compound 35], the “selectivity ratio SR” value at factor Xa stood at 200. The results for the inhibition constant (Ki) at factor Xa and at Thrombin were 5 nM and 1000 nM, respectively.

These data come from US9090658B2, “Base-substituted benzylamine analogs for use as coagulation factor Xa inhibitors, the production and use thereof” (The Medicines Company (Leipzig) GmbH, priority 2003, dated 2015).
